For assay [1], the target named is T1, Substance-K receptor (Rattus norvegicus) (UniProt P16610).
T1 sequence (whole entry): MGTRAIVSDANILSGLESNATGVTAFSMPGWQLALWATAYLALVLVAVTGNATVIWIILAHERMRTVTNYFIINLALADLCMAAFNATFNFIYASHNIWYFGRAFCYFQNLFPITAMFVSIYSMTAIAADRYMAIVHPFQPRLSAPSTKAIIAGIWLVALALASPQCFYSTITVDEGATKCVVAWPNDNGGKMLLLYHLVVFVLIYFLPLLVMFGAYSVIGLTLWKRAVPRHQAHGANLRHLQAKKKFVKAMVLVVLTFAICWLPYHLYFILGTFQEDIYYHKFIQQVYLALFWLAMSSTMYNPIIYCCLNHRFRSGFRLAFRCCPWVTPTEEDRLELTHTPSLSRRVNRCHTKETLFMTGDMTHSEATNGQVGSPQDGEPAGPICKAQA
Description: Antagonistic activity against Tachykinin receptor 2 in rat vas deferens at 10 nM concentration. The class given is functional.

Assay [2] has as its target T1, Substance-K receptor (Rattus norvegicus). Nature of the assay: Antagonistic activity against Tachykinin receptor 2 in rat vas deferens at 100 nM concentration. The class given is functional.
Another assay has as its target T2, Substance-K receptor (Rattus norvegicus, UniProt P16610).
T2 sequence (P16610 whole entry): T1 sequence (whole entry)
Description: pA2 value against Tachykinin receptor 2 in rat vas deferens. The class given is tissue-based. To be noted: for Kb: read-out: pA2 (converted).

For assay [3], the target named is T1, Substance-K receptor (Rattus norvegicus). Description: Antagonistic activity against Tachykinin receptor 2 in rat vas deferens at 30 nM concentration. The assay is classed as functional.

Consider 3 molecules from ChEMBL document CHEMBL1130985, “A novel super-potent neurokinin A receptor antagonist containing dehydroalanine” (Bioorg Med Chem Lett, 1998).

Numbered stars: 1 amine (or outer) side, 2 acyl side, 3 side chain; on linkers, the order of the positions; unused ones are H or OH. Bridge positions count the residues as written; N and C are the ends. Square brackets hold non-standard residues; d marks the D form. Peptide text beside a SMILES is read from it. X1 = O=C([C@@H](CN[*:1])CSCC1O[C@@H](O)C(O)[C@H](O)[C@H]1O)[*:2]; Dap = NC[C@H](N)C(=O)O; Dha = C=C(N)C(=O)O

For `CSCC[C@@H]1NC(=O)[C@H](CC(C)C)NC(=O)[C@@H]2CNC(=O)C[C@H](NC1=O)C(=O)N[C@@H](Cc1c[nH]c3ccccc13)C(=O)N[C@@H](Cc1ccccc1)C(=O)N2` (cyclo(DWF[Dap]LM); lactam 1-4), the values for the Emax in assay [1], in assay [2] and in assay [3] were 95%, 94% and 96%, respectively. Also, the Kb at Substance-K receptor was 6.17 nM.

As to `C=C1NC(=O)[C@H](CC(C)C)NC(=O)[C@@H]2CNC(=O)C[C@H](NC1=O)C(=O)N[C@@H](Cc1c[nH]c3ccccc13)C(=O)N[C@@H](Cc1ccccc1)C(=O)N2` (cyclo(DWF[Dap]L[Dha]); lactam 1-4), the pA2 on Substance-K receptor was found to be 9.65.

Consider `CC(C)C[C@@H]1NC(=O)[C@@H]2CNC(=O)C[C@H](NC(=O)[C@H](CSCC3O[C@@H](O)C(O)[C@H](O)[C@H]3O)CNC1=O)C(=O)N[C@@H](Cc1c[nH]c3ccccc13)C(=O)N[C@@H](Cc1ccccc1)C(=O)N2` (some centres undefined) (cyclo(DWF[Dap]L[X1]); lactam 1-4), for which the maximum response (Emax) in assay [1] came out at 96%; in assay [2], 92%; in assay [3], 99%. For the same molecule, the Kb on Substance-K receptor was 5.62 nM.
